Experimental data published in US5739104A, “Anti-fungal agents” (Schering Corporation, priority 1995, dated 1998).
One block for each compound: values may come before it. Starred links: 1 amine or outer side, 2 acyl side, 3 side chain; linkers in the order of their positions; H or OH if unused. Non-standard residues stand in square brackets, D forms with d. Residues, ends and D or L forms follow the SMILES beside them. X1 = O=C([C@H](O[*:1])C1CCCCC1)[*:2]; X2 = O=C([C@H](O[*:1])c1ccccc1)[*:2]; X3 = O=C([C@H](O[*:1])C1CCCC1)[*:2]; X4 = O=C([C@@H](O[*:1])C1CC1)[*:2]; NMeF = CN[C@@H](Cc1ccccc1)C(=O)O; NMeT = CN[C@H](C(=O)O)[C@@H](C)O; aIle = CC[C@@H](C)[C@H](N)C(=O)O; NMeV = CN[C@H](C(=O)O)C(C)C; dHiv = CC(C)[C@@H](O)C(=O)O; Pip = O=C(O)[C@@H]1CCCCN1; Aze = O=C(O)[C@@H]1CCN1

Assays:
[1] = test system: Candida albicans, Candida tropicalis, Candida stellatoidea, Candida parapsilosis, Candida krusei; test: In vitro anti-fungal microtiter minimum inhibitory concentration (MIC) test, geometric mean over Candida strains; assay type: cell-based
Experimental: The geometric mean is taken from the following strains
Candida stellatoidea C184
The minimum inhibitory concentrations (GMMICs-R(μg/ml) for Ca (SDB) Ca (EMEM) (Derm) and (Asp) for the compounds of formula I of the invention are as shown in Table 2 above.
The minimum inhibitory concentrations were determined in accordance with the procedure set forth just below.
In vitro anti-fungal activity was determined in microtiter minimum inhibitory concentration (MIC) tests using Yeast Nitrogen Broth (YNB without amino acids, Difco., Detroit, Mich.) at pH 5.4. Yeasts were grown overnight in Sabouraud Dextrose Broth at 28° C. with shaking, and concentrations adjusted in sterile saline using a spectrophoptometer at 540 mμ. Compounds were dissolved in various vehicles and diluted in media to twice the final concentrations. The Cetus Pro/Pette system was used to serially dilute 50 μl in round bottom 96 well plates (Falcon, Lincoln Park, N.J.). The turbidometrically adjusted yeast suspensions were diluted 1:3,000 in YNB. These dilutions when added to the wells, produced a final inoculum of 3×10^3 /ml. Plates were incubated at 37° C. for 48 hours. MICs were defined as the lowest concentrations of compound that prevented visible growth. MICs were taken against the following organisms and expressed in the table above as the geometric mean.

C. Albicans, C-43 = test: In vivo anti-fungal activity, C. albicans infection study in mice; conditions: once a day for 4 days starting 4 hours post infection
Experimental: In vivo anti-fungal activity for compounds of formula I of the invention was determined by using the test protocol set forth in Cacciapuoti et al, ANTIMICROBIAL AGENTS AND CHEMOTHERAPY, Vol.36, No. 1, January 1992, p. 64-67, which is hereby incorporated by reference. The specific test protocol used to obtain the data given below, appears in the just above mentioned article at pages 64 and 65 under the heading "C. albicans infection studies". Data obtained from this test protocol are as follows:
The numbering for the compounds tested is the same as the numbering used for the compounds in the rest of the application. The mice used in the above experiment were Charles River, white, male, mice weighing between 18 and 20 grams. The organism used to infect the mice was C. Albicans, C-43, 1XE6 CFU/mice, 0.1 M1 IV. The treatment was once a day for 4 days starting 4 hours post infection for those compounds which have a * next to them. For those compounds which have no * next to them, the treatment was once a day for 4 days starting 24 hours post infection. The dose was 0.1 ml/mouse in either case. The vehicle used with the compounds was Tween 80:Ethanol:PBS (1:9:40 or 2%:18%:80%)

[2] = EMEM, geometric mean over 14 Candida strains, 37° C., 48 hours
[3] = SDB, geometric mean over 14 Candida strains, 37° C., 48 hours

SMILES: CC[C@@H](C)[C@@H]1NC(=O)[C@@H]2CCCN2C(=O)[C@H](Cc2ccccc2)N(C)C(=O)[C@H](Cc2ccccc2)NC(=O)[C@H](C(C)C)N(C)C(=O)[C@@H](C(C)C)OC(=O)[C@H]([C@@H](C)O)N(C)C(=O)[C@H](CC(C)C)NC(=O)[C@H](C(C)C)N(C)C1=O [Compound 4] (cyclo(F[NMeF]P[aIle][NMeV]L[NMeT][dHiv][NMeV]))
Geo. Mean MICs (μg/ml) Ca. (EMEM) ([1]; 48 h): 0.500 µg/mL
Geo. Mean MICs (μg/ml) Ca. (SDB) ([1]; 48 h): 0.032 µg/mL

SMILES: CC[C@@H](C)[C@@H]1NC(=O)[C@@H]2CCCN2C(=O)[C@H](Cc2ccccc2)N(C)C(=O)[C@H](Cc2ccccc2)NC(=O)[C@H](C(C)C)N(C)C(=O)[C@@H](C2CCCCC2)OC(=O)[C@H]([C@@H](C)O)N(C)C(=O)[C@H](CC(C)C)NC(=O)[C@H](C(C)C)N(C)C1=O [Compound 1, Cyclo-depsi-N-methyl-threonyl-(2-hydroxyl-2-cyclohexylacetyl)-N-methylvalyl-phenylanalyl-N-methylphenylanalyl-prolyl-allo-isoleucyl-N-methylvalyl-leucine] (cyclo(F[NMeF]P[aIle][NMeV]L[NMeT][X1][NMeV]))
Geo. Mean MICs (μg/ml) Ca. (EMEM) [1, 2]: 0.288 µg/mL
Geo. Mean MICs (μg/ml) Ca. (SDB) [1, 3]: 0.018 µg/mL
% Survival (C. Albicans, C-43; 5 MPK IV): 60%
CFUs (GM) (C. Albicans, C-43; 5 MPK IV): 6.90
% Survival (C. Albicans, C-43; 5 MPK PO): 70%
CFUs (GM) (C. Albicans, C-43; 5 MPK PO): 6.68
% Survival (C. Albicans, C-43; 10 MPK IV): 70%
CFUs (GM) (C. Albicans, C-43; 10 MPK IV): 7.11
% Survival (C. Albicans, C-43; 10 MPK PO): 100%
CFUs (GM) (C. Albicans, C-43; 10 MPK PO): 6.01
% Survival (C. Albicans, C-43; 20 MPK PO): 100%
CFUs (GM) (C. Albicans, C-43; 20 MPK PO): 6.38
% Survival (C. Albicans, C-43; 40 MPK PO): 100%
CFUs (GM) (C. Albicans, C-43; 40 MPK PO): 6.52

SMILES: CC[C@@H](C)[C@@H]1NC(=O)[C@@H]2CCN2C(=O)[C@H](Cc2ccccc2)N(C)C(=O)[C@H](Cc2ccccc2)NC(=O)[C@H](C(C)C)N(C)C(=O)[C@@H](C2CCCCC2)OC(=O)[C@H]([C@@H](C)O)N(C)C(=O)[C@H](CC(C)C)NC(=O)[C@H](C(C)C)N(C)C1=O [Compound 2, Cyclo-depsi-N-methyl-threonyl-(2-hydroxy-2-cyclohexylacetyl)-N-methylvalyl-phenylalanyl-N-methylphenylalanyl-azetidinyl-allo-isoleucyl-N-methylvalyl-leucine] (cyclo([Aze][aIle][NMeV]L[NMeT][X1][NMeV]F[NMeF]))
Geo. Mean MICs (μg/ml) Ca. (EMEM) [1, 2]: 0.353 µg/mL
Geo. Mean MICs (μg/ml) Ca. (SDB) [1, 3]: 0.062 µg/mL

SMILES: CC[C@@H](C)[C@@H]1NC(=O)[C@@H]2CCN2C(=O)[C@H](Cc2ccccc2)N(C)C(=O)[C@H](Cc2ccccc2)NC(=O)[C@H](C(C)C)N(C)C(=O)[C@@H](C2CCCC2)OC(=O)[C@H]([C@@H](C)O)N(C)C(=O)[C@H](CC(C)C)NC(=O)[C@H](C(C)C)N(C)C1=O [Compound 5] (cyclo([Aze][aIle][NMeV]L[NMeT][X3][NMeV]F[NMeF]))
Geo. Mean MICs (μg/ml) Ca. (EMEM) ([1]; 48 h): 0.195 µg/mL
Geo. Mean MICs (μg/ml) Ca. (SDB) ([1]; 48 h): 0.015 µg/mL

Now from value to compound:

Geo. Mean MICs (μg/ml) Ca. (EMEM) ([1]; 48 h): 0.710 µg/mL
Geo. Mean MICs (μg/ml) Ca. (SDB) ([1]; 48 h): 0.170 µg/mL
SMILES: CC[C@@H](C)[C@@H]1NC(=O)[C@@H]2CCCN2C(=O)[C@H](Cc2ccccc2)N(C)C(=O)[C@H](Cc2ccccc2)NC(=O)[C@H](C(C)C)N(C)C(=O)[C@@H](c2ccccc2)OC(=O)[C@H]([C@@H](C)O)N(C)C(=O)[C@H](CC(C)C)NC(=O)[C@H](C(C)C)N(C)C1=O [Compound 7] (cyclo(F[NMeF]P[aIle][NMeV]L[NMeT][X2][NMeV]))

Geo. Mean MICs (μg/ml) Ca. (EMEM) ([1]; 48 h): 0.475 µg/mL
Geo. Mean MICs (μg/ml) Ca. (SDB) ([1]; 48 h): 0.290 µg/mL
SMILES: CC[C@@H](C)[C@@H]1NC(=O)[C@@H]2CCCCN2C(=O)[C@H](Cc2ccccc2)N(C)C(=O)[C@H](Cc2ccccc2)NC(=O)[C@H](C(C)C)N(C)C(=O)[C@@H](C2CCCCC2)OC(=O)[C@H]([C@@H](C)O)N(C)C(=O)[C@H](CC(C)C)NC(=O)[C@H](C(C)C)N(C)C1=O [Compound 9] (cyclo(F[NMeF][Pip][aIle][NMeV]L[NMeT][X1][NMeV]))

Geo. Mean MICs (μg/ml) Ca. (EMEM) ([1]; 48 h): 0.500 µg/mL
Geo. Mean MICs (μg/ml) Ca. (SDB) ([1]; 48 h): 0.090 µg/mL
SMILES: CC[C@@H](C)[C@@H]1NC(=O)[C@@H]2CCCN2C(=O)[C@H](Cc2ccccc2)N(C)C(=O)[C@H](Cc2ccccc2)NC(=O)[C@H](C(C)C)N(C)C(=O)[C@@H](C2CCCC2)OC(=O)[C@H]([C@@H](C)O)N(C)C(=O)[C@H](CC(C)C)NC(=O)[C@H](C(C)C)N(C)C1=O [Compound 6] (cyclo(F[NMeF]P[aIle][NMeV]L[NMeT][X3][NMeV]))

Geo. Mean MICs (μg/ml) Ca. (EMEM) ([1]; 48 h): 0.780 µg/mL
Geo. Mean MICs (μg/ml) Ca. (SDB) ([1]; 48 h): 0.133 µg/mL
SMILES: CC[C@@H](C)[C@@H]1NC(=O)[C@@H]2CCCN2C(=O)[C@H](Cc2ccccc2)N(C)C(=O)[C@H](Cc2ccccc2)NC(=O)[C@H](C(C)C)N(C)C(=O)[C@H](C2CC2)OC(=O)[C@H]([C@@H](C)O)N(C)C(=O)[C@H](CC(C)C)NC(=O)[C@H](C(C)C)N(C)C1=O [Compound 8] (cyclo([X4][NMeV]F[NMeF]P[aIle][NMeV]L[NMeT]))
